Test results as given in patent publication US20060127315A1, “Methods of treating humans undergoing injection of a contrast agent” (SHIVA BIOMEDICAL, L.L.C., priority 2004, published 2006).

Assay: Pharmacokinetics of deferiprone, single oral dose crossover study in subjects with mild renal insufficiency
Assay type: in vivo, human
Conditions: patients with mild to moderate renal insufficiency
Method: Blood samples were collected immediately prior to and for a period of 48 hours after each dose and the concentrations of deferiprone determined.

## Cc1c(O)c(=O)ccn1C [deferiprone, 1,2-dimethyl-3-hydroxy-pyrid-4-one]
  pharmacokinetic profile compared with patients with normal renal function: very similar to that reported with patients with normal renal function
